Measurements taken from US20140309244A1, “NOVEL MICROBIOCIDES” (SYNGENTA PARTICIPATIONS AG, priority 2010, published 2014).

Tests used:
[1] = tested on: Glomerella lagenarium (Colletotrichum lagenarium); test: Glomerella lagenarium (Colletotrichum lagenarium) / liquid culture (anthracnose); format: cell-based; conditions: Colletotrichum orbiculare, PDB potato dextrose broth, 96-well plate, 24° C., 3-4 days after application, read-out: control of Glomerella lagenarium (inhibition of growth, photometric)
[2] = tested on: Monographella nivalis (Microdochium nivale); test: Monographella nivalis (Microdochium nivale) / liquid culture (foot rot cereals); format: cell-based; conditions: PDB potato dextrose broth, 96-well plate, 24° C., 4-5 days after application, read-out: control of Monographella nivalis (inhibition of growth, photometric)
In short: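 Cryostored conidia in potato dextrose broth added to test compound in DMSO at 200 ppm. Incubated at 24° C; growth inhibition read photometrically 4-5 days after application.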

[3] = tested on: Thanatephorus cucumeris (Rhizoctonia solani); test: Thanatephorus cucumeris (Rhizoctonia solani) / liquid culture (foot rot, damping-off); format: cell-based; conditions: liquid culture of mycelia fragments, PDB potato dextrose broth, 96-well plate, 24° C., 3-4 days after application, read-out: control of Thanatephorus cucumeris (inhibition of growth, photometric)
Procedure: Thanatephorus cucumeris (Rhizoctonia solani)/Liquid Culture (Foot Rot, Damping-Off): Mycelia fragments of a newly grown liquid culture of the fungus are directly mixed into nutrient broth (PDB potato dextrose broth). After placing a DMSO solution of the test compounds into a 96-well microtiter plate at an application rate of 200 ppm, the nutrient broth containing the fungal material was added. The test plates were incubated at 24° C. and the inhibition of growth was determined photometrically 3-4 days after application.

[4] = tested on: Phaeosphaeria nodorum (Septoria nodorum); test: Phaeosphaeria nodorum (Septoria nodorum) / wheat / leaf disc preventative (glume blotch); format: in vivo; conditions: Parastagonospora nodorum, foliar, wheat cv Kanzler leaf segments, inoculated 2 days after application, assessed 5-7 days after application, read-out: control of Phaeosphaeria nodorum (percent disease control compared to untreated)
[5] = tested on: Magnaporthe grisea (Pyricularia oryzae); test: whole plant or invertebrate; format: in vivo; conditions: foliar, read-out: control of Magnaporthe grisea (percent disease control compared to untreated)
[6] = tested on: Mycosphaerella graminicola (Septoria tritici); test: Mycosphaerella graminicola (Septoria tritici) / liquid culture (Septoria blotch); format: cell-based; conditions: Zymoseptoria tritici, PDB potato dextrose broth, 96-well plate, 24° C., 4-5 days after application, read-out: control of Mycosphaerella graminicola (inhibition of growth, photometric)
[7] = tested on: Mycosphaerella arachidis (Cercospora arachidicola); test: Mycosphaerella arachidis (Cercospora arachidicola) / liquid culture (early leaf spot); format: cell-based; conditions: PDB potato dextrose broth, 96-well plate, 24° C., 4-5 days after application, read-out: control of Mycosphaerella arachidis (inhibition of growth, photometric)
[8] = tested on: Botryotinia fuckeliana (Botrytis cinerea); test: Botryotinia fuckeliana (Botrytis cinerea) / liquid culture (gray mould); format: cell-based; conditions: Vogels broth, 96-well plate, 24° C., 3-4 days after application, read-out: control of Botryotinia fuckeliana (inhibition of growth, photometric)
[9] = tested on: Puccinia recondita f. sp. tritici; test: Puccinia recondita f. sp. tritici / wheat / leaf disc curative (brown rust); format: in vivo; conditions: foliar, wheat cv Kanzler leaf segments, applied 1 day after inoculation, assessed 6-8 days after application, read-out: control of Puccinia recondita f. sp. tritici (percent disease control compared to untreated)
Procedure: Puccinia recondita f. sp. tritici/Wheat/Leaf Disc Curative (Brown Rust): Wheat leaf segments cv Kanzler were placed on agar in 24-well plates. The leaf segments were inoculated with a spore suspension of the fungus. The plates were stored in darkness at 19° C. and 75% relative humidity. The formulated test compound diluted in water was applied at an application rate of 200 ppm 1 day after inoculation.

[10] = tested on: Blumeria graminis f. sp. tritici (Erysiphe graminis f. sp. tritici); test: Blumeria graminis f. sp. tritici (Erysiphe graminis f. sp. tritici) / wheat / leaf disc preventative (powdery mildew on wheat); format: in vivo; conditions: foliar, wheat cv. Kanzler leaf segments, inoculated 1 day after application, assessed 6-8 days after application, read-out: control of Blumeria graminis (percent disease control compared to untreated)
[11] = tested on: Pyrenophora teres; test: Pyrenophora teres / barley / leaf disc preventative (net blotch); format: in vivo; conditions: foliar, barley cv Hasso leaf segments, inoculated two days after application, assessed 5-7 days after application, read-out: control of Pyrenophora teres (disease control compared to untreated)
[12] = tested on: Puccinia recondita f. sp. tritici; test: Puccinia recondita f. sp. tritici / wheat / leaf disc preventative (brown rust); format: in vivo; conditions: foliar, wheat cv Kanzler leaf segments, inoculated 1 day after application, assessed 7-9 days after application, read-out: control of Puccinia recondita f. sp. tritici (percent disease control compared to untreated)
Procedure: Puccinia recondita f. sp. tritici/Wheat/Leaf Disc Preventative (Brown Rust) Wheat leaf segments cultivated variety (cv) Kanzler were placed on agar in 24-well plates and sprayed with formulated test compound diluted in water at an application rate of 200 ppm. The leaf disks were inoculated with a spore suspension of the fungus 1 day after application. The inoculated leaf segments were incubated at 19° C. and 75% relative humidity under a light regime of 12/12 h (light/dark) in a climate cabinet and the activity of a compound was assessed as percent disease control compared to untreated when an appropriate level of disease damage appears in untreated check leaf segments (7-9 days after application). […].103

[13] = tested on: Gaeumannomyces graminis; test: Gaeumannomyces graminis / liquid culture (take-all of cereals); format: cell-based; conditions: liquid culture of mycelial fragments, PDB potato dextrose broth, 96-well plate, 24° C., 4-5 days after application, read-out: control of Gaeumannomyces graminis (inhibition of growth, photometric)

CO/N=C(\C)c1cccc(CCCO/N=C2\CCCc3c2nc2ccsc2c3C)n1 [P.88]
≥ 80%: inhibition at 200 ppm [1] | inhibition at 200 ppm [2] | inhibition at 200 ppm [3] | pest or weed control at 200 ppm [4] | pest or weed control at 200 ppm [5] | inhibition at 200 ppm [6] | inhibition at 200 ppm [7] | inhibition at 200 ppm [8] | pest or weed control at 200 ppm [9] | pest or weed control at 200 ppm [10] | pest or weed control at 200 ppm [11] | pest or weed control at 200 ppm [12]

CO/N=C(\C)c1cccc(CCCO/N=C2\CCCc3c2nc2ccc(Cl)cc2c3C)n1 [P.91]
≥ 80%: inhibition at 200 ppm [1] | inhibition at 200 ppm [2] | inhibition at 200 ppm [3] | pest or weed control at 200 ppm [4] | pest or weed control at 200 ppm [5] | inhibition at 200 ppm [6] | inhibition at 200 ppm [7] | inhibition at 200 ppm [8] | pest or weed control at 200 ppm [10] | pest or weed control at 200 ppm [12]

CCc1c2c(nc3ccccc13)/C(=N/OCCCc1cccc(/C(C)=N/OC)n1)CCC2 [P.92]
≥ 80%: inhibition at 200 ppm [1] | inhibition at 200 ppm [2] | inhibition at 200 ppm [3] | pest or weed control at 200 ppm [4] | pest or weed control at 200 ppm [5] | inhibition at 200 ppm [6] | inhibition at 200 ppm [7] | inhibition at 200 ppm [8] | pest or weed control at 200 ppm [9] | pest or weed control at 200 ppm [10] | pest or weed control at 200 ppm [11] | pest or weed control at 200 ppm [12]

CO/N=C(\C)c1cccc(CCCO/N=C2\CCCc3cc4c(nc32)CCCC4)n1 [P.94]
≥ 80%: inhibition at 200 ppm [1] | inhibition at 200 ppm [2] | inhibition at 200 ppm [13] | inhibition at 200 ppm [3] | pest or weed control at 200 ppm [4] | pest or weed control at 200 ppm [5] | inhibition at 200 ppm [6] | inhibition at 200 ppm [7] | inhibition at 200 ppm [8] | pest or weed control at 200 ppm [9] | pest or weed control at 200 ppm [10] | pest or weed control at 200 ppm [11] | pest or weed control at 200 ppm [12]

CO/N=C(\C)c1cccc(CCCO/N=C2\CCCc3cc4ccccc4nc32)n1 [P.100]
≥ 80%: inhibition at 200 ppm [1] | inhibition at 200 ppm [2] | inhibition at 200 ppm [13] | inhibition at 200 ppm [3] | pest or weed control at 200 ppm [4] | pest or weed control at 200 ppm [5] | inhibition at 200 ppm [6] | inhibition at 200 ppm [7] | inhibition at 200 ppm [8] | pest or weed control at 200 ppm [9] | pest or weed control at 200 ppm [10] | pest or weed control at 200 ppm [11] | pest or weed control at 200 ppm [12]
